The values below come from patent US9796676B2, “Honeybee repellents and uses thereof” (Inscent, Inc., priority 2013, dated 2017).

Structures are written as SMILES.

For series [1], the system named is Apis mellifera Carniolan foraging worker honeybees. Kind of series: Choice test in a free-flight box apparatus. In kind it is in vivo. Particulars: for P (probability that a honeybee will return to a test dish, nP divided by n): control likelihood without compound 47.5%; for nP (number of tests a honeybee returned to a preferred test dish): free-flight box, 2 μL of 0.05-0.5% compound on filter papers under honey dish. The source says: To determine whether living honeybees will choice to move towards a source of a candidate compound, these compounds will be assayed using a choice test in a free-flight box apparatus.
All tests will be done in a free-flight box apparatus. The apparatus comprises a 244 cm long×46 cm deep×30 cm high clear plastic box including two equally-sized independent testing chambers, each with 10 cm diameter air inlets that admit filtered room air, separated by a smaller central chamber with a screened air outlet to each testing chamber. Air can be pulled through the sealed box via a 10 cm diameter duct from the air outlet using an AQE Fume Fighter 500 fume extractor (BPA Air Quality Solutions, LLC, Charleston, S.C.), which removes the test odors using activated charcoal and HEPA filters. The box is housed in an environmentally controlled room with overhead illumination timed to correspond to the current ambient light cycle including 2 additional sets of lights timed to approximate crepuscular lighting conditions. The bottom of the apparatus will be lined with clean absorbent paper marked with a 4×9 grid pattern, forming 12 cm×12 cm squares with marked coordinates.
Apis mellifera Carniolan foraging worker honeybees will be obtained from a local apiary (typically 60 bees per shipment). Thirty honeybees will be put into each testing chamber and will be allowed to acclimate for 24 hours with food and water freely available. At the beginning of each test day all food will be removed from the test chamber, but water will be continually available throughout all tests. For each test, approximately 0.3 g of organic, raw orange blossom honey will be added to each clean small plastic weigh boat (Cole-Palmer). The honey boats will be placed in small plastic culture dishes, which will be distributed in the marked squares in the chambers. The positions of the dishes on the grid for a set of trials will be chosen to avoid the bees' preferred resting area so that they will have to find the food actively, but the same dish positions will be maintained for a given set of trials. We will use seven dishes of honey: six to which the bees will have access and a seventh that will have a screened lid. The honey in each boat will be weighed on an analytical balance before and after the test, with the screened sample as a control for evaporative loss. The fume extractor will be left off during the experimental trails, and will be turned on to clear the air after the test dishes are covered and removed from the chamber at the end of each trial.
Based on the observation that bees tend to return to dishes in the same position where they have fed before, each set of trials with each group of bees began with “Pattern Identification” tests to see which dishes lose the most weight, reflecting the most feeding. Once bees are consuming an acceptable amount in 10-15 min, typically in 1-2 trials, a set of test compound trials will begin. The test compound will be pipetted onto pieces of filter paper placed on the dish bottom below the boat containing a fresh, weighed honey sample so that the test compound will be inaccessible to the bees. We used 2 μL of a candidate compound at a concentration of 0.05-0.5%, in Triton X-100 or paraffin oil, on each of four pieces of filter paper per dish. The test-solution dishes will be set at the same positions as the one or two dishes favored in the preceding Pattern Identification trial. To eliminate interference from the solvent, the other dishes without the test substance will contain the same volume of the appropriate solvent on filter papers as the test solution dishes. The bees will be allowed to feed for 10-15 minutes. Bee movements will be recorded by a small, wide-angle digital video camcorder (HD Hero 960; GoPro, Halfmoon Bay, Calif.) placed on a tripod in front of the test chamber. […]

For series [2] the following is noted: cited from earlier work.
Series [3] concerns Apis mellifera Carniolan foraging worker honeybees. Description: Proboscis extension response (PER) assay with bees conditioned to 2-heptanone. It is filed as in vivo. The settings on record: 0.5% compound in Triton X-100/water on filter paper, 4 s exposure; only bees giving PER with 2-heptanone and not with water or 15% Triton X-100 controls counted. The method, then: To determine whether a living honeybee can recognize a candidate compound, these compounds were tested using a proboscis extension response (PER) assay using classical conditioning approaches. Proboscis extension response conditioning is a case of appetitive learning, in which bees learn to associate odor stimuli with sucrose reward in the laboratory. In this case, bees were conditioned to produce a PER to 2-heptanone as the conditioned stimulus and a sugar reward as the unconditioned stimulus. These trained bees were then exposed to an odor pulse of a candidate compound to test whether a candidate compound would also produce a PER. If the candidate compound “mimics” 2-heptanone then the honeybee will extend its proboscis.
For conditioning procedures, Apis mellifera Carniolan foraging worker honeybees were obtained from a local apiary (typically 60 bees per shipment). The honeybees were held overnight in insect cages with food and water freely available, in an environmentally controlled room on a light cycle similar to the ambient cycle at the time of the assay.
For conditioning procedures, all tests were done in an odorant delivery apparatus set inside a fume hood. The apparatus comprised a set of open-ended, horizontal, 3 cm diameter by 10 cm long plastic tubes. Each tube was designed where a honeybee could be positioned at the distal end of a tube, with the opening at the other end of the tube located proximal to an inlet of the fume hood. To deliver an odorant, room air was pumped by a diaphragm pump through a particle filter via 0.25 inch plastic tubing at approximately 0.7 m/sec. The air flow passes into the headspace above an odorant (0.5% [v/v] 2-heptanone dissolved in odorless light paraffin oil) contained in a 100 mL bottle. The headspace air then passes through another plastic tube to a manifold of 4-way valves, each of which was attached near the proximal end of a plastic tube containing a bee. Each bee was exposed separately for a desired time period to the odorant by opening and closing the appropriate valve. When each valve was closed, the odor was flushed away immediately by the continuous fume hood air stream.
To train a honeybee to respond to a conditioned and unconditioned stimuli, bees were placed, without anesthesia, in individual 1.5 mL micro-centrifuge holding tubes and held overnight without access to food or water. The holding tubes containing the starved bees were placed in racks in groups of eight. One rack at a time was placed behind the odorant delivery apparatus so that each bee's head is centered at the distal end of a horizontal plastic tube. Each bee was exposed to the 2-heptanone odorant alone for four seconds, and then while being fed an 80% sucrose solution for and additional three seconds. The sucrose solution was delivered on a piece of saturated filter paper held in forceps. […] Positive and negative responses were recorded. A positive PER was scored when a bee extended its proboscis before the sucrose appeared. In a typical trial, 48 individual bees were subjected to conditioning.
After conditioning, honeybees were tested with the candidate compounds the same day or on the following day or, most commonly, both. When held overnight, bees were fed with sucrose and kept in their holding tubes. When tested the day after training, bees were given one or more rounds of conditioning with 2-heptatone to refresh their memories. Candidate compounds stocks were made at 5% (w/v) in polyoxyethylene octyl phenyl ether (TRITON® X-100), a non-ionic detergent/surfactant, and stored at 4° C. […] Test solutions were made fresh daily by mixing stock solutions with water for a final compound concentration of 0.5%. A solution of 0.5% 2-heptanone in paraffin oil was used as a positive control.

For a further series, the system named is OBP2. Kind of series: Fluorescent-quench ligand-protein-binding assay (OBP2 binding). Also noted: species or system Apis mellifera. An excerpt: To identify a honeybee repellent disclosed herein, candidate compounds were screened based upon the fact that 2-heptanone is an established repellent of bees. 2-heptanone is thought to mediate its behavioral response through binding to a specific odorant-binding protein called OBP2. […] Such assays are generally known in the art. See, e.g., Briand, et al., Ligand-Binding Properties and Structural Characterization of a Novel Rat Odorant-Binding Protein Variant, Eur. J. Biochem. 267(10): 3079-3089 (2000); Briand, et al., Ligand Binding and Physico-Chemical Properties of ASP2, A Recombinant Odorant-Binding Protein From Honeybee (Apis mellifera L.), Eur. J. Biochem. 268(3): 752-760 (2001); Briand, et al., Characterization of a Chemosensory Protein (ASP3c) from Honeybee (Apis mellifera L.) as a Brood Pheromone Carrier, Eur. J. Biochem. 269(18): 4586-4596 (2002), each of which is hereby incorporated by reference in its entirety.

For `CCCCCC(C)=O` [2-heptone, 2-Heptanone, reference compound], the Z-score in series [1] (Z-test vs control likelihood 47.5%, alpha=10%, critical Z-score 1.282, positive = attractant, negative = repellant) is reported as −2.256. Also, in series [1], the “P (probability that a honeybee will return to a test dish, nP divided by n)” value worked out at 0.425 and the “nP (number of tests a honeybee returned to a preferred test dish)” value turned out to be 217. The Solubility in water result in series [2] is reported as “very slightly soluble”.
For `CCOc1ccccc1C=NN1C(=O)c2ccccc2C1=O` [compound 79], in series [1], the “P (probability that a honeybee will return to a test dish, nP divided by n)” value is listed as 1 and the “nP (number of tests a honeybee returned to a preferred test dish)” value amounted to 2. For the same compound, the “2-heptanone positive bees testing positive to compound” value in series [3] came out at 23.1%. Also, the “OBP2 binding characteristic of compound” value in the series on OBP2 is “Moderate (Moderate, indicates that 50% or less of the compound bound to OBP2.)”.
On to `c1ccc(Oc2cc(-n3cccn3)nc(-c3ccccc3)n2)cc1` [compound 80, 4-phenoxy-2-phenyl-6-(1H-pyrazol-1-yl)pyrimidine], for which, in series [1], the “P (probability that a honeybee will return to a test dish, nP divided by n)” value was 0.333 and the “nP (number of tests a honeybee returned to a preferred test dish)” value is on record as 2. Besides, in series [3], the “2-heptanone positive bees testing positive to compound” value was found to be 20.0%. For the same compound, the “OBP2 binding characteristic of compound” value with OBP2 is given as “Moderate (Moderate, indicates that 50% or less of the compound bound to OBP2.)”.
Consider `CCOC(=O)c1cc(CC)sc1NC(=O)c1ccccc1` [compound 81, ethyl 2-(benzoylamino)-5-ethyl-3-thiophenecarboxylate], for which, in series [1], the “P (probability that a honeybee will return to a test dish, nP divided by n)” value is given as 0.333 and the “nP (number of tests a honeybee returned to a preferred test dish)” value was 6. The “2-heptanone positive bees testing positive to compound” value in series [3] came to 37.5%. For the same compound, the “OBP2 binding characteristic of compound” value in the series on OBP2 is reported as “Moderate (Moderate, indicates that 50% or less of the compound bound to OBP2.)”.
For `Oc1c(Br)cc(Cl)cc1C=Nc1ccccn1` [compound 83, 2-bromo-4-chloro-6-[(2-pyridinylimino)methyl]phenol], in series [1], the “P (probability that a honeybee will return to a test dish, nP divided by n)” value is given as 0.278 and the “nP (number of tests a honeybee returned to a preferred test dish)” value is 10. Moreover, in series [3], the “2-heptanone positive bees testing positive to compound” value is reported as 47.7%. Moreover, the “OBP2 binding characteristic of compound” value in the series on OBP2 was “Moderate (Moderate, indicates that 50% or less of the compound bound to OBP2.)”.
Regarding `O=C1NC(=S)SC1=Cc1ccc(N2CCOCC2)c([N+](=O)[O-])c1` [compound 86, 5-[4-(4-morpholinyl)-3-nitrobenzylidene]-2-thioxo-1,3-thiazolidin-4-one], in series [1], the “P (probability that a honeybee will return to a test dish, nP divided by n)” value is on record as 0.25 and the “nP (number of tests a honeybee returned to a preferred test dish)” value is on record as 8. Further, the “2-heptanone positive bees testing positive to compound” value in series [3] is 38.1%. In the series with OBP2, the “OBP2 binding characteristic of compound” value is given as “Moderate (Moderate, indicates that 50% or less of the compound bound to OBP2.)”.
In the case of `CCc1ccc(O)c(N=Cc2cc(I)cc(I)c2O)c1` [compound 89, 2-{[(5-ethyl-2-hydroxyphenyl)imino]methyl}-4,6-diiodophenol], in series [1], the “P (probability that a honeybee will return to a test dish, nP divided by n)” value is on record as 0.278 and the “nP (number of tests a honeybee returned to a preferred test dish)” value was determined as 5. In addition, in series [3], the “2-heptanone positive bees testing positive to compound” value is on record as 33.3%. For the same compound, the “OBP2 binding characteristic of compound” value in the series with OBP2 is given as “Moderate (Moderate, indicates that 50% or less of the compound bound to OBP2.)”.
